How the values were obtained:
5-HT1D receptor = target: T1, 5-HT1D receptor (Bos taurus, UniProt F1MGM3); assay: [3H]5-HT binding to 5-HT1D sites in caudate nuclei membranes; conditions: bovine caudate membranes, [3H]5-HT 1.7-1.9 nM, pH 7.4, 37° C
T1 construct: the caudate nuclei were dissected out and frozen at -70° C; tissue Pel-Freeze Biologicals; host or cells: bovine caudate nuclei, washed membranes
Procedure: The affinities of the compounds at the central 5-HT1D binding sites were determined using a modification of the binding assay described by Heuring and Peroutka (J. Neurosci. 7:894-903, 1987). Bovine brains were obtained from Pel-Freeze Biologicals, and the caudate nuclei were dissected out and frozen at -70° C. until the time that the membranes were prepared for the binding assays. At that time the tissues were homogenized in 40 volumes of ice-cold Tris-HCl buffer (50 mM, pH 7.4 at 22° C.) with a Techmar Tissumizer (setting 65 for 15 sec), and the homogenate was centrifuged at 39,800 g for 10 min. The resulting pellet was then resuspended in the same buffer, and the centrifugation and resuspension process was repeated three additional times to wash the membranes. Between the second and third washes the resuspended membranes were incubated for 10 min at 37° C. to facilitate the removal of endogenous 5-HT. the final pellet was resuspended in Tris buffer to a concentration of 25 mg of original tissue wet weight/ml for use in the binding assay. […] The assay tubes were incubated for 10 min at 37° C., and the contents were then rapidly filtered through GF/B filters (pretreated with 0.5% polyethylenimine), followed by four one-mL washes with ice-cold buffer. The radioactivity trapped by the filters was quantitated by liquid scintillation spectrometry, and specific [^3 H]5-HT binding to the 5HT1D sites were defined as the difference between [^3 H]5-HT bound in the presence and absence of 10 μM 5-HT.
The affinities of compounds at the 5-HT1D receptor are expressed as IC50 values, i.e., the concentration required to inhibit 50% of the binding. These values were determined from 12-point competition curves using nonlinear regression (SYSTAT, SYSTAT, Inc. Evanston, Ill.).

serotonin [1] = assay: whole brain serotonin concentration in vivo in rats; design: species or system rat (male albino); conditions: 1 hour
Procedure: (§1) In another experiment certain compounds of the Examples were evaluated to determine ability to affect the 5-hydroxyindoles serotonin and 5-hydroxyindole acetic acid (5HIAA), and serum corticosterone, in vivo. Male albino rats were injected subcutaneously with an aqueous solution of the compound. The pH of the solution was adjusted as necessary to solubilize the compound. A control of the solution without the test compound was similarly injected into a control animal. The rats were decapitated one hour later. Trunk blood was collected and allowed to clot. After centrifugation, serum was stored frozen prior to analysis. The whole brain was removed and frozen on dry ice for storage prior to analysis. The serum corticosterone concentration was measured spectrofluorometrically using the procedure of Solem and Brinck-Johnson, "An Evaluation of a Method for Determination of Free Corticosteroids in Minute Quantities of Mouse Plasma", Scand. J. Clin. Lab. Invest., Suppl. 80, p. 1-14 (1965), incorporated herein by reference. 5-Hydroxyindoleacetic acid (5HIAA) concentration in whole brain was measured by liquid chromatography with electrochemical detection as reported by Fuller and Perry, "Effects of Buspirone and its Metabolite, 1-(2-pyrimidinyl)piperazine, on Brain Monoamines and Their Metabolites in Rats", J. Pharmacol. Exp. Ther., 248, p. 50-56 (1989), incorporated herein by reference.

serotonin [2] = assay: as above; design: species or system rat (male albino); conditions: 5 hrs before sacrifice
rats = assay: death of treated rats in the in vivo 5-hydroxyindole/corticosterone experiment; design: species or system rat (male albino); conditions: 3 mg/kg s.c.
Procedure: as §1

[3] = 0.0003 mg/kg s.c., series 0.0003-0.03 mg/kg
[4] = 0.003 mg/kg s.c., series 0.0003-0.03 mg/kg
[5] = 0.03 mg/kg s.c., series 0.0003-0.03 mg/kg
[6] = 0.03 mg/kg s.c., series 0.03-3 mg/kg
[7] = 0.3 mg/kg s.c., series 0.03-3 mg/kg
[8] = 3 mg/kg s.c., series 0.03-3 mg/kg

T1 sequence (F1MGM3 1-403): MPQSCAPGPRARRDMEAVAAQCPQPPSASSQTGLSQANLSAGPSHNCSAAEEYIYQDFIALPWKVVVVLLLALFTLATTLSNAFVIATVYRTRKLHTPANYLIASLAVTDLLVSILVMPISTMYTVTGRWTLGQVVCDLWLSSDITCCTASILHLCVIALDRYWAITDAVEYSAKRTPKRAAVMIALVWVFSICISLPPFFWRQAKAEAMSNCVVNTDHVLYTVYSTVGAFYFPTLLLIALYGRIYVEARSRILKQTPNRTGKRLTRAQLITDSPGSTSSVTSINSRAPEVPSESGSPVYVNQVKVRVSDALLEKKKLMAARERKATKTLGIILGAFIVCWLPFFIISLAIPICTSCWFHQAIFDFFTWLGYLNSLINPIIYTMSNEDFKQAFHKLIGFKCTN

Structure (SMILES) | IC50 (5-HT1D receptor) [nM] | Serotonin (serotonin [1]; [3]) [nmol/g] | Serotonin (serotonin [1]; [4]) [nmol/g] | Serotonin (serotonin [1]; [5]) [nmol/g] | Serotonin (serotonin [1]; [6]) [nmol/g] | Serotonin (serotonin [1]; [7]) [nmol/g] | Serotonin (serotonin [1]; [8]) [nmol/g] | Serotonin (serotonin [2]; 0.1 mg/kg orally) [nmol/g] | Serotonin (serotonin [2]; 0.3 mg/kg orally) [nmol/g] | Serotonin (serotonin [2]; 1 mg/kg orally) [nmol/g] | Serotonin (serotonin [2]; 3 mg/kg orally) [nmol/g] | death of treated rats (rats)
CCCN(CCC)[C@H]1Cc2c[nH]c3ccc(C(=O)C(C)C)c(c23)C1 [Example 9, (4R)-(+)-6-(2-methylpropanoyl)-4-(di-n-propylamino)-1,3,4,5-tetrahydrobenz[cd]indole] | 1.27 | 2.76 ± 0.10 | 2.94 ± 0.11 | 3.08 ± 0.11 | 2.56 ± 0.07 | 2.94 ± 0.13 | 2.65 ± 0.07 |  |  |  |  | 
CCCN(CCC)[C@@H]1Cc2c[nH]c3ccc(C(C)=O)c(c23)C1 [Example 8, (4S)-(-)-6-acetyl-4-(di-n-propylamino)-1,3,4,5-tetrahydrobenz[cd]indole] | 96.4 | 2.91 ± 0.12 | 2.65 ± 0.13 | 3.30 ± 0.09 | 2.58 ± 0.15 | 2.78 ± 0.13 | 2.63 ± 0.12 | 2.77 ± 0.07 | 2.47 ± 0.07 | 2.86 ± 0.07 | 2.68 ± 0.11 | 
CCCN(CCC)C1Cc2c[nH]c3ccc(C(C)=O)c(c23)C1 (racemic) [Example 2, (±)-6-Acetyl-4-(di-n-propylamino)-1,3,4,5-tetrahydrobenz[cd]indole] | 18.4 | 2.71 ± 0.06 | 2.64 ± 0.11 | 3.23 ± 0.11 | 2.60 ± 0.09 | 2.54 ± 0.14 | 3.25 ± 0.01 |  |  |  |  | 
CCCN(CCC)[C@H]1Cc2c[nH]c3ccc(C(C)=O)c(c23)C1 [Example 7, (4R)-(+)-6-acetyl-4-(di-n-propylamino)-1,3,4,5-tetrahydrobenz[cd]indole] | 7.46 | 2.68 ± 0.11 | 2.74 ± 0.07 | 3.00 ± 0.10 | 2.47 ± 0.07 | 2.59 ± 0.14 |  |  |  |  |  | dead within one hour

From patent publication US5229409A, “6-substituted-tetrahydrobenz[cd]indoles” (Eli Lilly and Company, priority 1991, dated 1993)
